Measured values taken from paper PMC12073438, “Stereoselectivity of In Vivo Processes and Bioactivity of Farrerol Enantiomers” (Molecules, 2025).
Values joined by “and” are separate entries in the source; they are usually repeats but may differ in a detail not shown here. Equal values may be shown once. Read-outs that look alike come from different tables or passages of the source. Marks after values point to notes of the source that are not given here.

Legend:
[1] = Stereoselective pharmacokinetics in rat plasma; assay type: in vivo, Sprague–Dawley rats; settings: for MRT last: read-out: MRT(0–t); for chiral transformation between enantiomers: single enantiomers orally administered (75 mg/kg)
Description: The pharmacokinetic data were optimally characterized by a noncompartmental model. The mean concentration-time profiles for the farrerol enantiomers are illustrated in Figure 3, along with the corresponding key pharmacokinetic parameters presented in Table 2.
Twenty-five rats were randomly divided into five experimental groups (A, B, C, D, and E). Groups A and B received farrerol racemate via intragastric administration at doses of 150 mg/kg and 75 mg/kg, respectively. Group C was administered 4 mg/kg of farrerol racemate through caudal intravenous administration. […] Blood samples (300 μL) were obtained from the orbital venous plexus into heparinized tubes at various time points: 0.25, 0.5, 1, 2, 3, 5, 7, 9, 12, and 24 h following gavage administration, and at 0.083, 0.167, 0.25, 0.5, 1, 1.5, 2, 2.5, 3, and 5 h post-intravenous administration. Plasma was separated by centrifugation (3000 rpm, 10 min) and stored at −80 °C until analysis.
A total of 150 μL of plasma and 50 μL of the internal standard solution were added to a 1.5 mL EP tube and mixed using a vortex for 30 s. Subsequently, 500 μL of ether was introduced, and the mixture was vortexed for 5 min. Following centrifugation at 10,000 rpm for 10 min, the resulting organic layer was carefully transferred to a separate tube. Each sample underwent two extraction processes. The resulting ether layer was then evaporated to dryness using a continuous air stream at room temperature. A 250 μL aliquot of methanol was employed to re-dissolve the residue, utilizing vortex mixing for 2 min. Following centrifugation at 14,000 rpm for 10 min, the supernatant was subsequently injected into the HPLC-MS system for analysis.
Stereoselective chromatographic analysis of farrerol enantiomers was conducted utilizing an ACQUITY UPLC I-Class UPLC system (Waters, Milford, MA, USA), which is equipped with a quaternary pump and an autosampler. The chiral separation was carried out employing a Chiralpak OJ-RH column (250 mm × 4.6 mm, 5 μm), which was obtained from Daicel Chemical Industries (Shanghai, China). The mobile phase consisted of ACN-H2O (60:40, v/v), and the constant flow rate was 0.5 mL/min. The column temperature was set at 25 °C, and the injection volume was 10 μL.
Mass detection was conducted using a triple quadrupole mass spectrometer (Waters Co., USA) equipped with an electrospray ionization (ESI) source. The detection of enantiomers and internal standards (IS) was carried out in multiple reaction monitoring (MRM) mode utilizing negative ionization. The m/z 299→179 for enantiomers and m/z 267→252 for IS were selected as detecting ions for quantitation. The collision energies (CE) were established at 22 eV and 20 eV, respectively. The primary mass spectrometry (MS) parameters were configured as follows: capillary voltage was set to 3.5 kV, ion source temperature was maintained at 150 °C, desolvation gas flow rate was 800 L/h, and the cone voltage (CV) was adjusted to 1.3 V.
Pharmacokinetic analysis was conducted utilizing the Drug and Statistics (DAS) 2.0 software provided by the Chinese Pharmacological Society. To assess the differences in pharmacokinetic parameters, the IC50 values of the evaluated CYP enzymes and the permeability coefficients between the two farrerol enantiomers, paired sample t-tests and independent sample t-tests were performed. Statistical significance was defined as * p < 0.05 and ** p < 0.01. All results are presented as mean values ± standard deviation (SD).

CYP2C19 = CYP2C19 (Homo sapiens, UniProt P33261); assay: CYP inhibition in liver microsomes (S-mephenytoin); assay type: in vitro ADME; settings: CYP 2C19, marker substrate S-mephenytoin
Description: (§1) A liver microsome working solution (20 mg/mL) contained potassium phosphate buffer (0.1 M, pH 7.4), hepatic microsomes and marker substrate solution, which phenacetin, diclofenic acid, S-mephenytoinwer, dextromethorphan, midazolam, coumarin and chlorzoxazone used as substrates for […], CYP2C9, CYP2C19, CYP2D6, CYP3A4/5, CYP2A6 and CYP2E1, respectively. In brief, 238.5 µL of liver microsome working solution was placed in a 1 mL EP tube. […] The reaction was started by injecting NADPH (1 mM), and the resulting mixture was incubated at 37 °C for 10 min. After centrifuging at 4000 rpm for 15 min, the supernatant was transferred and analyzed using LC-MS/MS to detect the corresponding metabolites. Each incubation was conducted in triplicate (n = 3).
(§2) An API 4000 LC/tandem mass spectrometry was used to analyze the concentration of metabolites of various chemical agents using a validated mode. An Atlantis T3 column (2.1 mm × 50 mm, 5 μm) was utilized, employing mobile phases consisting of a 0.1% formic acid solution (A) and a 0.1% acetonitrile formate solution (B). […] MRM was utilized to quantify each metabolite, detecting the following transitions: m/z 152.1/110 for acetaminophen, 312.1/230.0 for 4′-Hydroxydiclofenac, 235.0/150.0 for 4′-hydroxymephentoin, 258.2/199.1 for Dextrorphan, 342.1/203.0 for 1′-hydroxymidazolam, 161.1/133.1 for hydroxycoumarin, and 184.0/120.0 for 6-hydroxyclozoxadone.

CYP2E1 = CYP2E1 (Homo sapiens, UniProt P05181); assay: CYP inhibition in liver microsomes (chlorzoxazone); assay type: in vitro ADME; settings: CYP 2E1, marker substrate chlorzoxazone
Description: as §1, §2

[2] = Sprague-Dawley, rat, plasma, iv, 4 mg/kg, i.v. of farrerol racemate (4 mg/kg)
[3] = Sprague-Dawley, rat, plasma, po, 150 mg/kg, i.g. of farrerol racemate (150 mg/kg)
[4] = i.g. of farrerol racemate (75 mg/kg)
[5] = i.g. of farrerol racemate (150 mg/kg)
[6] = i.g. of the single enantiomer (75 mg/kg)
[7] = i.v. of farrerol racemate (4 mg/kg)
[8] = oral 75 mg/kg farrerol racemate
[9] = Sprague-Dawley, rat, plasma, po, 75 mg/kg, i.g. of the single enantiomer (75 mg/kg)

Chain of CYP2C19 (P33261 whole entry): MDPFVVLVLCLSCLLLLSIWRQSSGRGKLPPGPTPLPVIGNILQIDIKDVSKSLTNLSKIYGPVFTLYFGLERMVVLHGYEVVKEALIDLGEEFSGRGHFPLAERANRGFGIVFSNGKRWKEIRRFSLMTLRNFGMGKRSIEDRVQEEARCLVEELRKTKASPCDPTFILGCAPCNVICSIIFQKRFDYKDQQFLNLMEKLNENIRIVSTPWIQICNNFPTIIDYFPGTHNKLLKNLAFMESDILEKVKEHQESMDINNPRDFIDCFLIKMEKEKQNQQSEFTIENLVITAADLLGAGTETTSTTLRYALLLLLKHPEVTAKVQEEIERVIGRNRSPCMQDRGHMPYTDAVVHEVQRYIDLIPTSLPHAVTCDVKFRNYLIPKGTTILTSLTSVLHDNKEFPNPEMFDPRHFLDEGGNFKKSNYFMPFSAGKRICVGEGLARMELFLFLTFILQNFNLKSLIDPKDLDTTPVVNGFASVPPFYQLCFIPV
Chain of CYP2E1 (P05181 whole entry): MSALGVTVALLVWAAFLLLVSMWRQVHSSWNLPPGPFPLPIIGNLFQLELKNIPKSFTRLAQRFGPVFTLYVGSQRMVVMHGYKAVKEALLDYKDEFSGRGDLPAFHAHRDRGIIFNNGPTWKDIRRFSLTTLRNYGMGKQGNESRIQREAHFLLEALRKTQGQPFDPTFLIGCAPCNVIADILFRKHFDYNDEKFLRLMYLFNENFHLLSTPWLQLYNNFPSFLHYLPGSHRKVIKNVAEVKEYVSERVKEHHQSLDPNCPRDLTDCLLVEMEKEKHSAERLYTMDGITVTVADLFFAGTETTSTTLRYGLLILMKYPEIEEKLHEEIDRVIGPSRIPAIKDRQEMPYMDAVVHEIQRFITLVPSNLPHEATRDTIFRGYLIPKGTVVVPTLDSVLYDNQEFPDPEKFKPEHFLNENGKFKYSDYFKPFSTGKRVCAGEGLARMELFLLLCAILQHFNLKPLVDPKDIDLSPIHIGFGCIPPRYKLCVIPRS

Structure (SMILES)	AUC(0–t) [1, 4]	AUC(0–∞) [1, 4]	Cmax [1, 4]	F [1, 4]	Tmax [1, 4]	t1/2 [1, 4]	AUC(0–t) [1, 5]	AUC(0–∞) [1, 5]	t1/2 [1, 5]	AUC(0–∞) [1, 6]	Cmax [1, 6]	Tmax [1, 6]	Cmax [1, 7]	chiral transformation between enantiomers [1]	IC50 (CYP2C19)	IC50 (CYP2E1)	further results
Cc1c(O)c(C)c2c(c1O)C(=O)CC(c1ccc(O)cc1)O2 (single isomer, unassigned; (+)) [(+)-farrerol, 2,3-dihydro-5,7-dihydroxy-2-(4-hydroxyphenyl)-6,8-dimethyl-4-benzopyrone]	2399 ng·h/mL and 2399.1 ± 102.3 ng·h/mL	6870.3 ± 511.4 ng·h/mL	287.0 ± 24.6 ng/mL	8.7 ± 0.7%	3.00 h	19.2 ± 2.0 ** h	3522.6 ± 146.0 ng·h/mL	13,885.5 ± 2550.4 ng/mL*h	22.9 ± 2.6 h	22,122.4 ± 1894.1 ng/mL*h	1177.4 ± 84.5 ng/mL	5.00 h	2662.7 ± 226.4 ng/mL	no chiral transformation	1.61 µM	> 50 µM	AUC(0-inf) [1, 2]: 1550 ± 56 ng·h/mL; AUC(0-t) [1, 2]: 1460 ± 54.5 ng·h/mL; half-life [1, 2]: 10.7 ± 0.1 h; Cmax ([1]; Sprague-Dawley, rat, plasma, iv, 4 mg/kg, i.v. of farrerol racemate (4 mg/kg), read-out: Cmax): 2660 ng/mL; MRT last [1, 2]: 2.7 ± 0.1 h; Tmax ([1]; Sprague-Dawley, rat, plasma, iv, 4 mg/kg, i.v. of farrerol racemate (4 mg/kg), read-out: Tmax): 0.08 h; MRT last ([1]; Sprague-Dawley, rat, plasma, po, 75 mg/kg, i.g. of farrerol racemate (75 mg/kg)): 6.27 ± 0.27 h; bioavailability [1, 3]: 6.4 ± 0.04%; Cmax ([1]; Sprague-Dawley, rat, plasma, po, 150 mg/kg, i.g. of farrerol racemate (150 mg/kg), read-out: Cmax): 457 ± 24.6 ng/mL; MRT last [1, 3]: 5.98 ± 0.14 h; Tmax ([1]; Sprague-Dawley, rat, plasma, po, 150 mg/kg, i.g. of farrerol racemate (150 mg/kg), read-out: Tmax): 1.5 h; MRT(0–t) [1, 6]: 9.12 ± 0.18 h; t1/2 [1, 6]: 10.4 ± 0.4 h; AUC0–t of (+)-farrerol relative to (−)-farrerol [1, 8]: ~5.6 fold; Cmax of (+)-farrerol relative to (−)-farrerol [1, 8]: about 3.5 fold; AUC0–t of (+)-farrerol relative to (−)-farrerol ([1]; oral 75 mg/kg of single enantiomers): ~2.61 fold
Cc1c(O)c(C)c2c(c1O)C(=O)CC(c1ccc(O)cc1)O2 (single isomer, unassigned; (-)) [(−)-farrerol, 2,3-dihydro-5,7-dihydroxy-2-(4-hydroxyphenyl)-6,8-dimethyl-4-benzopyrone]	428.3 ± 88.2 ** ng/mL*h	1341.8 ± 337.6 ** ng/mL*h	80.5 ± 7.5 ** ng/mL	2.3 ± 0.05 ** %	1.00 * h	8.5 ± 1.5 ** h	1622.6 ± 84.3 ** ng/mL*h	1837.8 ± 226.9 ** ng/mL*h	3.5 ± 0.4 ** h	8572.4 ± 221.0 ng·h/mL	520.9 ± 91.7 ng/mL	2.00 ^# h	1695.0 ± 224.6 ** ng/mL	no chiral transformation	2.07 µM	> 50 µM	half-life [1, 9]: 12 ± 0.5 h; MRT last [1, 9]: 10.8 ± 0.47 h; MRT(0–t) [1, 4]: 5.61 ± 0.56 h; Cmax [1, 5]: 390.0 ± 35.3 * ng/mL; F [1, 5]: 4.3 ± 0.7 * %; MRT(0–t) [1, 5]: 4.65 ± 0.06 h; Tmax [1, 5]: 1.50 h; AUC(0–t) [1, 6]: 6746.8 ± 298.7 ng·h/mL; AUC(0–t) [1, 7]: 1012.4 ± 88.1 ** ng/mL*h; AUC(0–∞) [1, 7]: 1195.7 ± 49.7 ** ng/mL*h; MRT(0–t) [1, 7]: 3.48 ± 0.07 * h; Tmax [1, 7]: 0.08 h; t1/2 [1, 7]: 19.0 ± 3.7 * h
